≈ marks a conversion by molar mass, not a printed value. Where “and” joins values, the source holds several entries; their conditions need not be identical. Equal entries are not always repeated. Where two headings read alike, the source gives them in different places.

The record followed here is paper PMC10056636, “3-Amino-Substituted Analogues of Fusidic Acid as Membrane-Active Antibacterial Compounds” (Membranes, 2023).

Data set [1] relates to Acinetobacter baumannii (ATCC 19606). As to the kind of experiment: Antibacterial whole-cell growth inhibition (MIC, CO-ADD). The data set is classed as cell-based. As to conditions: A. baumannii, two replicates per cell.
The test system of data set [2] is Escherichia coli (ATCC 25922). The description is as above. The data set is classed as cell-based. As to conditions: E. coli, two replicates per cell.
Data set [3] relates to Pseudomonas aeruginosa (ATCC 27853). Described as above. The data set is classed as cell-based. The conditions noted are these: P. aeruginosa, two replicates per cell.
Data set [4] concerns Staphylococcus aureus (ATCC 43300) (MRSA). The description is as above. Format: cell-based. The conditions noted are these: S. aureus (MRSA) ATCC 43300, inhibition ≥80%, two replicates (n = 2).
The next data set can be described thus: Hemolysis assay. Format: cell-based, human. The conditions noted are these: human, Dmax (maximal percentage of hemolysis).
For a further data set, the system named is human red blood cells. Put plainly: Hemolysis assay. Format: cell-based. As to conditions: human, 1 h.
A short description of data set [5]: Ion permeability and rupture of planar lipid bilayers. As to conditions: for concentration up to which addition did not increase the ion permeability of the lipid bilayers: DPhPC uncharged membranes; for Cbr (threshold concentration required to rupture the bilayer): DPhPC, 0.1 M KCl, pH 7.4, 100 mV. Here is the method:
(§1) Synthetic 1,2-diphytanoyl-sn-glycero-3-phosphocholine (DPhPC) and 1,2-diphytanoyl-sn-glycero-3-phospho-(1′-rac-glycerol) (DPhPG) were purchased from Avanti® Polar Lipids (Avanti Polar Lipids, Inc., Alabaster, AL, USA). A KCl solution (0.1 M) was buffered with 5 mM HEPES, pH 7.4. Bilayer lipid membranes were prepared from DPhPC or DPhPG using a monolayer-opposition technique on a 50 µm-diameter aperture in a 10 µm-thick Teflon film separating the cis- and trans-compartments of the Teflon chamber. Experiments were performed in chambers containing 0.1 M KCl, 5 mM Hepes-KOH, pH 7.4.
(§2) The test compounds (4, 20, 22) were added to the cis-chamber as 10 mg/mL solutions in ethanol (to mimic the physiologically relevant conditions) up to the final concentrations and the effects of the compounds on the ion permeability of the model lipid membranes were studied. Ag/AgCl electrodes with 1.5% agarose/2 M KCl bridges were used to apply the transmembrane voltage (V) and measure the transmembrane current (I). ‘Positive voltage’ refers to the case in which the cis-side compartment is positive with respect to the trans-side. All experiments were performed at room temperature.
(§3) The current was measured using an Axopatch 200B amplifier (Molecular Devices, LLC, Orlean, CA, USA) in voltage clamp mode. Data were digitized using a Digidata 1440A and analyzed using pClamp 10.0 (Molecular Devices, LLC, Orlean, CA, USA) and Origin 8.0 (OriginLab Corporation, Northampton, MA, USA). The data were acquired at a sampling frequency of 5 kHz using low-pass filtering at 200 Hz.
(§4) The threshold concentrations (Cbr) of the derivatives required to rupture the bilayers composed of DPhPC or DPhPG at a transmembrane voltage of 100 mV were determined. Cbr-values were averaged from 3 to 4 bilayers and presented as mean ± standard error (p ≤ 0.05).

Data set [6] in a line: Ion permeability, pore formation and rupture of planar lipid bilayers. As to conditions: for formation of ion-permeable pores: DPhPG bilayers; for Cbr (threshold concentration required to rupture the bilayer): 0.1 M KCl, pH 7.4, 100 mV. Here is the method: as §1, §2, §3, §4
Pore-forming ability of compound 22 was studied by applying transmembrane voltages in a range of 50–200 mV with 50 mV step and by increasing the derivative concentration in the bilayer bathing solution from 10 to 150 µg/mL.

Data set [7] in a line: Measurement of the membrane boundary potential (K+-nonactin conductance). The conditions noted are these: 0.1 M KCl, pH 7.4, 50 mV. Here is the method: Measurement of the membrane boundary potential. Virtually solvent-free planar lipid bilayers were made of DPhPC or DPhPG as described above. After the membrane was completely formed and stabilized and its stability was assessed by applying voltages in a range from −200 to 200 mV with a 50 mV step for 5–10 min, stock solutions of nonactin A (7 μg/mL in ethanol) were added to the bathing solution (0.1 M KCl, 5 mM HEPES, pH 7.4) in both chamber compartments to obtain a final concentration ranging from 0.1 to 1 μM.
Test derivatives (4, 20, 22) as 10 mg/mL solutions in ethanol were added to both compartments in a concentration range from 5 µg/mL to Cbr in increments of 25 µg/mL.
The conductance of the bilayers was determined by measuring the membrane conductance (G) at a constant transmembrane voltage of 50 mV. In the subsequent calculations, the membrane conductance was assumed to be related to the membrane boundary potential (φb), the potential drop between the aqueous solution and the membrane hydrophobic core, by the Boltzmann distribution (1) Gm/Gm0=exp(eΔφb/kT) where Gm and Gm^0 are the steady-state membrane conductances induced by K^+-nonactin in the presence and absence of test compounds, respectively; e, k, and T have their usual meanings.
The changes in the membrane boundary potential for the defined experimental conditions were averaged from 4 bilayers and presented as mean ± standard deviation (p ≤ 0.05).

[8] abbreviates: Acinetobacter baumannii, ATCC19606, read-out: MIC.
The mark [9] stands for this setting: Escherichia coli, ATCC25922, read-out: MIC.
Where [10] appears, read: Pseudomonas aeruginosa, ATCC27853, read-out: MIC.

As usually defined, the MIC is the smallest concentration in the dilution series that meets the test's criterion for growth inhibition. On to `COC(=O)/C(CCC=C(C)C)=C1\[C@@H](OC(C)=O)C[C@@]2(C)[C@@H]1C[C@@H](O)[C@@H]1[C@@]3(C)CC[C@H](NCCCNCCCCNCCCN)[C@@H](C)C3CC[C@@]12C` (stereo partly drawn) [Compound 22, Methyl (2Z)-2-[(3β,4α,8α,11α,14β,16β)-16-(acetyloxy)-3-{[3-({4-[(3-aminopropyl)amino]butyl}amino)propyl]amino}-11-hydroxy-4,8,10,14-tetramethylgonan-17-ylidene]-6-methylhept-5-enoate], for which the MIC in data set [1], in data set [1] (setting [8]), in data set [2], in data set [2] (setting [9]), in data set [3] and in [3] (setting [10]) was 32 µg/mL (≈ 44.8 µM) in each case. The MIC in data set [4] (Staphylococcus aureus, read-out: MIC) stood at 2 µg/mL (≈ 2.8 µM). This compound also came in with a hemolysis at 1 h in the data set “Hemolysis assay” of 15.1%. In addition, the “Dmax (maximal percentage of hemolysis)” value in the data set on human red blood cells was found to be 11.3%. Also, the HC50 with human red blood cells is given as >32 >32 µg/mL. For the same compound, the “concentration up to which addition did not increase the ion permeability of the lipid bilayers” value in data set [5] is at most 250 µg/mL. The “Cbr (threshold concentration required to rupture the bilayer)” value came out at 250 ± 11 µg/mL in data set [5] and 135 ± 10 µg/mL in [6] (DPhPG). In data set [6] (DPhPG), the “concentration from which (up to Cbr) stepwise current fluctuations are produced” value is 35 to 40 µg/mL. Besides, the “formation of ion-permeable pores” value in data set [6] is listed as “able to produce stepwise current fluctuations”. In addition, the “amplitude of the stepwise current fluctuations” value in data set [6] (DPhPG, pores induced by the compound) is 20–160 pS. Further, the entries for the “−Δφb(max) (maximum decrease in the membrane boundary potential)” value in [7] (DPhPC) and in data set [7] (DPhPG) were 40 ± 8 mV and 23 ± 8 mV, respectively.
As for `COC(=O)/C(CCC=C(C)C)=C1\[C@@H](OC(C)=O)C[C@@]2(C)[C@@H]1C[C@@H](O)[C@@H]1[C@@]3(C)CC[C@H](NCCCNCCCCN)[C@@H](C)C3CC[C@@]12C` (stereo partly drawn) [Compound 20, Methyl (2Z)-2-[(3β,4α,8α,11α,14β,16β)-16-(acetyloxy)-3-({3-[(4aminobutyl)amino]propyl}amino)-11-hydroxy-4,8,10,14-tetramethylgonan-17-ylidene]-6-methylhept-5-enoate], the MIC is 32 µg/mL (≈ 48.6 µM) in data set [1]; 32 µg/mL (≈ 48.6 µM) in [1] (setting [8]); 32 µg/mL (≈ 48.6 µM) in data set [2]; 32 µg/mL (≈ 48.6 µM) in data set [2] (setting [9]); >32 >32 µg/mL in data set [3]; over 32 µg/mL in data set [3] (setting [10]). For the same compound, the MIC in [4] is 4.0 µg/mL and 8.0 µg/mL. Moreover, the hemolysis at 1 h in the data set “Hemolysis assay” was 61.8%. Further, the “Dmax (maximal percentage of hemolysis)” value in the data set with human red blood cells is listed as 60.5%. Also, in [5], the “concentration up to which addition did not increase the ion permeability of the lipid bilayers” value was at most 275 µg/mL. The “Cbr (threshold concentration required to rupture the bilayer)” value in data set [5] is 275 ± 25 µg/mL; in [6] (DPhPG), 190 ± 13 µg/mL. In addition, the “concentration up to which ionic permeability of lipid bilayers is not affected” value in data set [6] (DPhPG) is at most 200 µg/mL. The “formation of ion-permeable pores” value in [6] is given as “not able to form transient ion-permeable pores”. The “−Δφb(max) (maximum decrease in the membrane boundary potential)” value in [7] (DPhPC) turned out to be 29 ± 7 mV; in [7] (DPhPG), 11 ± 4 mV.
